Laboratory results reported in article PMC4413193, “3-[4-(1H-Indol-3-yl)-1,3-thiazol-2-yl]-1H-pyrrolo[2,3-b]pyridines, Nortopsentin Analogues with Antiproliferative Activity” (Marine Drugs, 2015).

What was measured:
HL-60(TB) = assay: NCI-60 in vitro tumor cell growth inhibition, HL-60(TB) (leukemia); format: cell-based; settings: Homo sapiens, five concentration levels 10^−4–10^−8 M
Protocol: (§1) All the synthesized thiazoles 3a–k were evaluated by the National Cancer Institute (Bethesda MD) for cytotoxicity against the NCI-60 cell line panel using standard protocols. Initially, the selected derivatives 3c,d,g,h,j,k were tested at a single dose (10^−5 M) on the full panel of approximately 60 human tumor cell lines derived from 9 human cancer cell types, that have been grouped in disease sub-panels including leukemia, non-small-cell lung, colon, central nervous system (CNS), melanoma, ovarian, renal, prostate and breast cancers (data not shown). Compounds 3d and 3k were further selected for full evaluation at five concentration levels (10^−4–10^−8 M).
(§2) The antitumor activity of compounds 3d and 3k was given by three parameters for each cell line: GI50 (the molar concentration of the compound that inhibits 50% net cell growth), TGI (the molar concentration of the compound leading to total inhibition of net cell growth), and LC50 (the molar concentration of the compound that induces 50% net cell death). The average values of mean graph midpoint (MG_MID) were calculated for each of these parameters.

A549/ATCC = assay: NCI-60 in vitro tumor cell growth inhibition, A549/ATCC (non-small cell lung cancer); format: cell-based; settings: Homo sapiens, five concentration levels
Protocol: as §1, §2

EKVK = assay: NCI-60 in vitro tumor cell growth inhibition, EKVK (non-small cell lung cancer); format: cell-based; settings: Homo sapiens, five concentration levels
Protocol: as §1, §2

HOP-92 = assay: NCI-60 in vitro tumor cell growth inhibition, HOP-92 (non-small cell lung cancer); format: cell-based; settings: Homo sapiens, five concentration levels
Protocol: as §1, §2

NCI-H23 = assay: NCI-60 in vitro tumor cell growth inhibition, NCI-H23 (non-small cell lung cancer); format: cell-based; settings: Homo sapiens, five concentration levels
Protocol: as §1, §2

NCI-H522 = assay: NCI-60 in vitro tumor cell growth inhibition, NCI-H522 (non-small cell lung cancer); format: cell-based; settings: Homo sapiens, five concentration levels
Protocol: as §1, §2

COLO-205 = assay: NCI-60 in vitro tumor cell growth inhibition, COLO-205 (colon cancer); format: cell-based; settings: Homo sapiens, five concentration levels
Protocol: as §1, §2

HCT-15 = assay: NCI-60 in vitro tumor cell growth inhibition, HCT-15 (colon cancer); format: cell-based; settings: Homo sapiens, five concentration levels
Protocol: as §1, §2

SF-268 = assay: NCI-60 in vitro tumor cell growth inhibition, SF-268 (CNS cancer); format: cell-based; settings: Homo sapiens, five concentration levels
Protocol: as §1, §2

SNB-19 = assay: NCI-60 in vitro tumor cell growth inhibition, SNB-19 (CNS cancer); format: cell-based; settings: Homo sapiens, five concentration levels
Protocol: as §1, §2

SNB-75 = assay: NCI-60 in vitro tumor cell growth inhibition, SNB-75 (CNS cancer); format: cell-based; settings: Homo sapiens, five concentration levels
Protocol: as §1, §2

MDA-MB-435 = assay: NCI-60 in vitro tumor cell growth inhibition, MDA-MB-435 (melanoma); format: cell-based; settings: Homo sapiens, five concentration levels
Protocol: as §1, §2

SK-MEL-28 = assay: NCI-60 in vitro tumor cell growth inhibition, SK-MEL-28 (melanoma); format: cell-based; settings: Homo sapiens, five concentration levels
Protocol: as §1, §2

UACC-62 = assay: NCI-60 in vitro tumor cell growth inhibition, UACC-62 (melanoma); format: cell-based; settings: Homo sapiens, five concentration levels
Protocol: as §1, §2

OVCAR-5 = assay: NCI-60 in vitro tumor cell growth inhibition, OVCAR-5 (ovarian cancer); format: cell-based; settings: Homo sapiens, five concentration levels
Protocol: as §1, §2

OVCAR-8 = assay: NCI-60 in vitro tumor cell growth inhibition, OVCAR-8 (ovarian cancer); format: cell-based; settings: Homo sapiens, five concentration levels
Protocol: as §1, §2

MCF7 = assay: NCI-60 in vitro tumor cell growth inhibition, MCF7 (breast cancer); format: cell-based; settings: Homo sapiens, five concentration levels
Protocol: as §1, §2

MDA-MB-231/ATCC = assay: NCI-60 in vitro tumor cell growth inhibition, MDA-MB-231/ATCC (breast cancer); format: cell-based; settings: Homo sapiens, five concentration levels
Protocol: as §1, §2

MDA-MB-468 = assay: NCI-60 in vitro tumor cell growth inhibition, MDA-MB-468 (breast cancer); format: cell-based; settings: Homo sapiens, five concentration levels
Protocol: as §1, §2

HepG2 cells [1] = assay: Phosphatidylserine exposure, Annexin V-FITC/PI flow cytometry; format: cell-based, human; settings: HepG2, 24 h, at GI50 values
Protocol: Apoptosis induction by 3d and 3k in HepG2 cells was investigated by externalization of plasma membrane phosphatidylserine and changes of mitochondrial transmembrane potential.
The apoptosis-induced PS externalization to the cell surface was measured by flow cytometry by double staining with Annexin V-Fluorescein isothiocyanate (Annexin V-FITC)/propidium iodide (PI). Annexin V binding to phosphatidylserine is used to identify the earliest stage of apoptosis. […] HepG2 cells were seeded in triplicate in 24-wells culture plates at a density of 2.0 × 10^5 cells/cm^2. After an overnight incubation, cells were washed with fresh medium and incubated with the compounds in RPMI. After 24 h, cells were harvested by trypsinization and adjusted at 2.0 × 10^5 cells/mL with combining buffer. One hundred μL of cell suspended solution was added to a new tube, and incubated with 5 µL annexin V and 10 μL of a 20 μg/mL PI solution at room temperature in the dark for 15 min. Then at least 1.0 × 10^4 cells were immediately subjected to FACS analysis using appropriate 2-bidimensional gating method.

HepG2 cells [2] = assay: Acridine orange/ethidium bromide morphological staining; format: cell-based, human; settings: HepG2, 24 h, at GI50 concentration
Source text: To confirm apoptotic mechanism of cytotoxicity of the nortopsentin analogues, we carried out morphological evaluation of HepG2 cells using AO and EB double staining. […] Moreover, fluorescing orange cells owing to increase of cell permeability to ethidium bromide, cell shrinkage and nuclear fragmentation were also evident as cells in late apoptosis (Figure 3B). Taken together, these findings provided strong evidence that the synthesized nortopsentin analogues induced apoptosis in HepG2 cells.
Acridine orange (AO) stains DNA bright green, allowing visualization of the nuclear chromatin pattern and stains both live and dead cells. Ethidium bromide (EB) stains DNA orange but is excluded by viable cells. Dual staining allows separate enumeration of populations of viable non-apoptotic, viable (early) apoptotic, nonviable (late) apoptotic, and necrotic cells. Live cells appear uniformly green. […] Late apoptotic cells incorporate EB and therefore stain orange, but, in contrast to necrotic cells, the late apoptotic cells show condensed and often fragmented nuclei. Necrotic cells stain orange, but have a nuclear morphology resembling that of viable cells, with no condensed chromatin. Briefly, after HepG2 cells were treated with 3d or 3k compounds for 24 h, the medium was discarded. […]

HepG2 cells [3] = assay: Intracellular reactive oxygen species, DCFH flow cytometry; format: cell-based, human; settings: HepG2, 24 h treatment
Protocol: Involvement of mitochondria in apoptosis induced in HepG2 cells by the synthesized nortopsentin analogues, was assessed. Loss of mitochondrial trans-membrane potential was indicated by decreased mitochondrial 3,30-dihexyloxacarbocyanine iodide-red fluorescence (Figure 4A).
ROS level was monitored by measuring fluorescence changes that resulted from intracellular oxidation of 2′,7′-dichlorofluorescin diacetate (DCFH). DCFH, at […] final concentration, was added to the cell medium 30 min before the end of the treatment. The cells were collected by centrifugation for 5 min at 2000 rpm at 4 °C, washed, suspended in PBS and immediately subjected to fluorescence-activated cell sorting analysis. At least 1 × 10^4 cells were analyzed for each sample.

Structure (SMILES)	GI50 (HL-60(TB))	GI50 (A549/ATCC)	GI50 (EKVK)	GI50 (HOP-92)	GI50 (NCI-H23)	GI50 (NCI-H522)	GI50 (COLO-205)	GI50 (HCT-15)	GI50 (SF-268)	GI50 (SNB-19)	GI50 (SNB-75)	GI50 (MDA-MB-435)	GI50 (SK-MEL-28)	GI50 (UACC-62)	GI50 (OVCAR-5)	GI50 (OVCAR-8)	GI50 (MCF7)	GI50 (MDA-MB-231/ATCC)	GI50 (MDA-MB-468)	apoptosis induction, externalized phosphatidylserine (HepG2 cells [1])	further results
Cn1cc(-c2csc(-c3cn(C)c4ncccc34)n2)c2ccccc21 [Compound 3d, 1-Methyl-3-[4-(1-methyl-1H-indol-3-yl)-1,3-thiazol-2-yl]-1H-pyrrolo[2,3-b]pyridine]	290 nM	560 nM	910 nM	350 nM	720 nM	40 nM	190 nM	170 nM	2440 nM	630 nM	160 nM	30 nM	1200 nM	300 nM	1410 nM	660 nM	330 nM	2820 nM	280 nM	high percentage of cells in early apoptosis	morphological evaluation, AO and EB double staining (HepG2 cells [2]): chromatin condensation and nuclear fragmentation; levels of intracellular ROS (HepG2 cells [3]): significantly higher than cell control
Cn1cc(-c2nc(-c3c[nH]c4ccccc34)cs2)c2cccnc21 [Compound 3k, 3-[4-(1H-Indol-3-yl)-1,3-thiazol-2-yl]-1-methyl-1H-pyrrolo[2,3-b]pyridine]	320 nM	710 nM	910 nM	310 nM	670 nM	50 nM	190 nM	290 nM	940 nM	640 nM	140 nM	40 nM	760 nM	420 nM	2390 nM	820 nM	370 nM	1290 nM	230 nM	high percentage of cells in early apoptosis	morphological evaluation, AO and EB double staining (HepG2 cells [2]): chromatin condensation and nuclear fragmentation; levels of intracellular ROS (HepG2 cells [3]): significantly higher than cell control
